# Source: US20170129903A1, “COMPOUNDS COMPRISING 1,1a,2,5a-TETRAHYDROSPIRO[INDOLE-3,2a-PYRROLE]-2,5a-DIONE SYSTEM AS INHIBITORS P53-MDM2 PROTEIN-PROTEIN INTERACTION” (ADAMED SP. Z O.O., priority 2014, published 2017)
# How the values were obtained:
# [1] = system: SJSA-1 osteosarcoma cell line; assay: MTT cell viability assay; assay type: cell-based; conditions: 72 h incubation, average of 2-5 experiments
# Experimental: The effect of the invented p53-Mdm2 inhibitors on cell viability has been assessed using MTT assay. It is a colorimetric assay that measures conversion of tetrazolium ring of the soluble yellow dye (MTT) into insoluble purple formazan. This process is catalysed solely in mitochondrial dehydrogenases of living cells.
# Cells were seeded on 96-well plates and then treated with successive dilutions of tested compounds. After 72 h incubation, MTT was added to the final concentration 0.5 mg/ml. The cells were further incubated for the next 4 h. Then the solution was drained and the remaining formazan crystals were dissolved in 100 μl DMSO. […] All the MTT experiments were independently repeated 2-5 times. Dose-dependent binding curves and IC50 values were calculated using GraphPad Prism 5.
# [2] = molecular target: T1, p53-Mdm2 interaction (N-terminal domain of Mdm2 protein, amino acids 1-111) (Homo sapiens, UniProt Q00987); assay: Fluorescence polarization (FP) binding assay of p53-Mdm2 interaction; conditions: for Ki: FP assay, 130 nM Mdm2, FAM-labelled p53 peptide, Ki transformed from IC50 using Kenakin equation; for times more potent than the corresponding S/R (racemic) mixture: enantiopure S isomers vs racemic Compounds 71, 93 and 72, respectively
# T1 construct: N-terminal domain of Mdm2 protein (amino acids 1-111)
# T1 sequence (Q00987 1-111): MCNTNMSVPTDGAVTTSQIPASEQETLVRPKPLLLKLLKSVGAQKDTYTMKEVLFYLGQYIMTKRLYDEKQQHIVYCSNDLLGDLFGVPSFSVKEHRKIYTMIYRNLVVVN
# Procedure, shortened: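 N-terminal Mdm2 (aa 1-111) at 130 nM preincubated 15 min with compound (5% DMSO) in PBS, 0.1% CHAPS, 5 mM DTT, then […] FAM-labelled p53 peptide added. Polarization read after 90 min at room temperature (ex 470/em 520 nm). IC50 converted to Ki by Kenakin equation.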
Compound,"IC50 ([1]; Homo sapiens, SJSA-1, 72 h) [µM]",Ki [2] [nM],times more potent than the corresponding S/R (racemic) mixture [2],IC50 [1] [µM]
"COc1ccccc1-n1nc2c(c1C(C)C)[C@@]1(C(=O)Nc3cc(Cl)ccc31)N(c1cc(Cl)cnc1C)C2=O [Compound 80, (3S)-6-chloro-5′-(5-chloro-2-methyl-pyridin-3-yl)-2′-(2-methoxyphenyl)-3′-(propan-2-yl)-1,2,5′,6′-tetrahydro-2′H-spiro [indole-3,4′-pyrrolo[3,4-c]pyrazole]-2,6′-dione]",0.28,1.9,about 2 times,
"COc1ccccc1-n1nc2c(c1C(C)C)[C@@]1(C(=O)Nc3cc(Cl)ccc31)N(c1cncc(Cl)c1)C2=O [Compound 81, (3S)-6-chloro-5′-(5-chloropyridin-3-yl)-2′-(2-methoxyphenyl)-3′-(propan-2-yl)-1,2,5′,6′-tetrahydro-2′H-spiro-[indole-3,4′-pyrrolo[3,4-c]pyrazole]-2,6′-dione]",,2.2,about 2 times,0.8
"COc1ccccc1-n1nc2c(c1C(C)C)[C@@]1(C(=O)Nc3cc(Cl)ccc31)N(c1cncc(Cl)c1)C2=O [Compound 88, (3S)-6-chloro-5′-(5-chloropyridin-3-yl)-2′-(2-methoxyphenyl)-3′-(propan-2-yl)-1,2,5′,6′-tetrahydro-2′H-spiro[indole-3,4′-pyrrolo[3,4-c]pyrazole]-2,6′-dione]",,1.9,,0.34
"Cc1ccc(Cl)cc1N1C(=O)c2cn(-c3cccc4c3OCO4)c(C(C)C)c2C12C(=O)Nc1cc(Cl)ccc12 (centres unmarked) [Compound 94, 5′-(2H-1,3-benzodioxol-4-yl)-6-chloro-2′-(5-chloro-2-methylphenyl)-6′-(propan-2-yl)-1,2,3′,5′-tetrahydro-2′H-spiro[indole-3,1′-pyrrolo[3,4-c]pyrrole]-2,3′-dione]",0.93,9.6,,
"COc1ccc(C(N)=O)cc1-n1cc2c(c1C(C)C)C1(C(=O)Nc3cc(Cl)ccc31)N(c1cc(Cl)ccc1C)C2=O (centres unmarked) [Compound 95, 3-[6-chloro-2′-(5-chloro-2-methylphenyl)-2,3′-dioxo-6′-(propan-2-yl)-1,2,3′,5′-tetrahydro-2′H-spiro[indole-3,1′-pyrrolo [3,4-c]pyrrole]-5′-yl]-4-methoxybenzamide]",0.3,1.8,,
"COc1ccc(N)cc1-n1cc2c(c1C(C)C)C1(C(=O)Nc3cc(Cl)ccc31)N(c1cc(Cl)ccc1C)C2=O (centres unmarked) [Compound 96, 5′-(5-amino-2-methoxyphenyl)-6-chloro-2′-(5-chloro-2-methylphenyl)-6′-(propan-2-yl)-1,2,3′,5′-tetrahydro-2′H-spiro [indole-3,1′-pyrrolo[3,4-c]pyrrole]-2,3′-dione]",0.3,4,,
"COc1ccc(NC(C)=O)cc1-n1cc2c(c1C(C)C)C1(C(=O)Nc3cc(Cl)ccc31)N(c1cc(Cl)ccc1C)C2=O (centres unmarked) [Compound 97, N-{3-[6-chloro-2′-(5-chloro-2-methylphenyl)-2,3′-dioxo-6′-(propan-2-yl)-1,2,3′,5′-tetrahydro-2′H-spiro[indole-3,1′-pyrrolo[3,4-c]pyrrole]-5′-yl]-4-methoxyphenyl}acetamide]",0.3,3.4,,
"COc1ccccc1-n1cc2c(c1C(C)C)C1(C(=O)Nc3cc(Cl)ccc31)N(c1cc(Cl)ccc1C(N)=O)C2=O (centres unmarked) [Compound 99, 4-chloro-2-[6-chloro-5′-(2-methoxy-phenyl)-2,3′-dioxo-6′-(propan-2-yl)-1,2,3′,5′-tetrahydro-2′H-spiro[indole-3,1′-pyrrolo[3,4-c]pyrrole]-2′-yl]benzamide]",0.65,6.7,,
"COc1cc2[nH]c(=O)[nH]c2cc1-n1cc2c(c1C(C)C)C1(C(=O)Nc3cc(Cl)ccc31)N(c1cc(Cl)ccc1C)C2=O (centres unmarked) [Compound 101, 6-chloro-2′-(5-chloro-2-methylphenyl)-5′-(6-methoxy-2-oxo-2,3-dihydro-1H-1,3-benzodiazol-5-yl)-6′-(propan-2-yl)-1,2,3′,5′-tetrahydro-2′H-spiro[indole-3,1′-pyrrolo[3,4-c]pyrrole]-2,3′-dione]",1.77,4.7,,
"COc1ccccc1-n1cc2c(c1C(C)C)C1(C(=O)Nc3cc(Cl)ccc31)N(c1cc(Cl)ccc1C(=O)O)C2=O (centres unmarked) [Compound 105, 4-chloro-2-[6-chloro-5′-(2-methoxyphenyl)-2,3′-dioxo-6′-(propan-2-yl)-1,2,3′,5′-tetrahydro-2′H-spiro[indole-3,1′-pyrrolo[3,4-c]pyrrole]-2′-yl]benzoic acid]",9.98,4.3,,

# The remaining compounds from weak to strong by Ki [2], led by results:
"IC50 ([1]; Homo sapiens, SJSA-1, 72 h) [µM]",Ki [2] [nM],times more potent than the corresponding S/R (racemic) mixture [2],IC50 [1] [µM],Compound
46.1,152,,,"Cc1ncc(Cl)cc1N1C(=O)c2n[nH]c(C(C)C)c2C12C(=O)Nc1cc(Cl)ccc12 (centres unmarked) [Compound 84, 6-chloro-5′-(5-chloro-2-methylpyridin-3-yl)-3′-(propan-2-yl)-1,2,5′,6′-tetrahydro-2′H-spiro[indole-3,4′-pyrrolo[3,4-c]pyrazole]-2,6′-dione]"
13,86,,,"CCc1ccccc1-n1nc2c(c1CC)C1(C(=O)Nc3cc(Cl)ccc31)N(c1cc(Cl)ccc1C)C2=O (centres unmarked) [Compound 85, 6-chloro-5′-(5-chloro-2-methylphenyl)-3′-ethyl-2′-(2-ethylphenyl)-1,2,5′,6′-tetrahydro-2′H-spiro[indole-3,4′-pyrrolo [3,4-c]pyrazole]-2,6′-dione]"
6.19,33,,,"COc1ccccc1-n1cc2c(c1C(C)C)C1(C(=O)Nc3cc(Cl)ccc31)N(c1cc(Cl)ccc1[N+](=O)[O-])C2=O (centres unmarked) [Compound 90, 6-chloro-2′-(5-chloro-2-nitrophenyl)-5′-(2-methoxyphenyl)-6′-(propan-2-yl)-1,2,3′,5′-tetrahydro-2′H-spiro[indole-3,1′-pyrrolo [3,4-c]pyrrole]-2,3′-dione]"
1.07,6.6,,,"COc1ccccc1-n1cc2c(c1C(C)C)C1(C(=O)Nc3cc(Cl)ccc31)N(c1cc(Cl)ccc1NS(C)(=O)=O)C2=O (centres unmarked) [Compound 92, N-{4-chloro-2-[6-chloro-5′-(2-methoxy-phenyl)-2,3′-dioxo-6′-(propan-2-yl)-1,2,3′,5′-tetrahydro-2′H-spiro[indole-3,1′-pyrrolo[3,4-c]pyrrole]-2′-yl]phenyl} methanesulfonamide]"
1.02,5.7,,,"COC(=O)c1ccc(OC)c(-n2nc3c(c2C(C)C)C2(C(=O)Nc4cc(Cl)ccc42)N(c2cc(Cl)ccc2O)C3=O)c1 (centres unmarked) [Compound 79, methyl 3-[6-chloro-5′-(5-chloro-2-hydroxyphenyl)-2,6′-dioxo-3′-(propan-2-yl)-1,2,5′,6′-tetrahydro-2′H-spiro[indole-3,4′-pyrrolo[3,4-c]pyrazole]-2′-yl]-4-methoxybenzoate]"
0.38,4.6,,,"CCN(CC)S(=O)(=O)c1ccc(OC)c(-n2cc3c(c2C(C)C)C2(C(=O)Nc4cc(Cl)ccc42)N(c2cc(Cl)ccc2C)C3=O)c1 (centres unmarked) [Compound 98, 3-[6-chloro-2′-(5-chloro-2-methylphenyl)-2,3′-dioxo-6′-(propan-2-yl)-1,2,3′,5′-tetrahydro-2′H-spiro[indole-3,1′-pyrrolo [3,4-c]pyrrole]-5′-yl]-N,N-diethyl-4-methoxybenzene-1-sulfonamide]"
2.2,4.5,,,"CO[C@H]1CNCC[C@H]1n1cc2c(c1C(C)C)[C@@]1(C(=O)Nc3cc(Cl)ccc31)N(c1cc(Cl)ccc1C)C2=O [Compound 103, (3S)-6-chloro-2′-(5-chloro-2-methyl-phenyl)-5′-[(3S,4R)-3-methoxy-piperidin-4-yl]-6′-(propan-2-yl)-1,2,3′,5′-tetrahydro-2′H-spiro[indole-3,1′-pyrrolo [3,4-c]pyrrole]-2,3′-dione]"
1.21,3.5,,,"COc1ccc(C(=O)NCCO)cc1-n1cc2c(c1C(C)C)C1(C(=O)Nc3cc(Cl)ccc31)N(c1cc(Cl)ccc1C)C2=O (centres unmarked) [Compound 100, 3-[6-chloro-2′-(5-chloro-2-methylphenyl)-2,3′-dioxo-6′-(propan-2-yl)-1,2,3′,5′-tetrahydro-2′H-spiro[indole-3,1′-pyrrolo [3,4-c]pyrrole]-5′-yl]-N-(2-hydroxyethyl)-4-methoxybenzamide]"
0.36,3.4,,,"COC(=O)c1ccc(OC)c(-n2nc3c(c2C(C)C)C2(C(=O)Nc4cc(Cl)ccc42)N(c2cc(Cl)ccc2C)C3=O)c1 (centres unmarked) [Compound 78, methyl 3-[6-chloro-5′-(5-chloro-2-methylphenyl)-2,6′-dioxo-3′-(propan-2-yl)-1,2,5′,6′-tetrahydro-2′H-spiro[indole-3,4′-pyrrolo[3,4-c]pyrazol]-2′-yl]-4-methoxybenzoate]"
0.16,3.1,,,"COc1ccc(-n2cc3c(c2C(C)C)C2(C(=O)Nc4cc(Cl)ccc42)N(c2cc(Cl)cnc2C)C3=O)c(OC)c1 (centres unmarked) [Compound 104, 6-chloro-2′-(5-chloro-2-methylpyridin-3-yl)-5′-(2,4-dimethoxyphenyl)-6′-(propan-2-yl)-1,2,3′,5′-tetrahydro-2′H-spiro[indole-3,1′-pyrrolo[3,4-c]pyrrole]-2,3′-dione]"
0.66,2.9,,,"COc1ccccc1-n1cc2c(c1C(C)C)[C@@]1(C(=O)Nc3cc(Cl)ccc31)N(c1cc(Cl)ccc1NS(C)(=O)=O)C2=O [Compound 102, N-{4-chloro-2-[(3S)-6-chloro-5′-(2-methoxy-phenyl)-2,3′-dioxo-6′-(propan-2-yl)-1,2,3′,5′-tetrahydro-2′H-spiro[indole-3,1′-pyrrolo[3,4-c]pyrrole]-2′-yl]phenyl} methanesulfonamide]"
